In patent US9163018B2, “Method of treatment of age-related macular degeneration (AMD)” (Prana Biotechnology Limited, priority 2006, dated 2015):

Assays:
[1] = Mice plasma concentration after oral dose; type: in vivo; settings: 30 min to 4 h after single or repeat oral dose of 30 mg/kg
[2] = Toxicity, visual observations in mice; settings: 30 mg/kg; duration and visual observations
[3] = system: dityrosine oligomerization; assay: CuTy: inhibition of dityrosine oligomerization; type: biochemical; settings: referenced to in-house standard (set as 100% inhibition)
[4] = system: primary cortical neuronal cultured cells; assay: Test compound cytotoxicity, MTS assay, primary cortical neuronal cultures; type: cell-based, mouse; settings: for Cytotox (% viable) Neuronal cells at 1 μM: 1 μM test compound; for Cytotox (% viable) Neuronal cells at 10 μM: 10 μM test compound
In short: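 Primary cortical neurons were cultured five days in Neurobasal/B27, then exposed on day six to compounds (from 2.5 mM DMSO stocks) in medium minus antioxidants, in triplicate for 4 days at 37° C. Viability was measured by MTS, 2 h at 37° C, absorbance at 560 nm.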

[5] = system: M17 human neuroblastoma cells; assay: Cytotoxicity, M17 human neuroblastoma cells; type: cell-based; settings: for Cytotox (% viable) M17 cells at 1 μM: 1 μM test compound; for Cytotox (% viable) M17 cells at 10 μM: 10 μM test compound
Protocol: Assay 3. MTS Assay for Cell Viability
Cell viability is determined using the MTS assay. Culture medium is replaced with fresh neurobasal medium plus B27 supplements minus antioxidants. 1/10th volume MTS solution (Cell Titre 96 Aqueous One, Promega Corporation) and incubated at 37° C., 2 hrs. 200 microliter aliquots are measured with a spectrophotometer at 560 nm.

Aβ 1-42 = molecular target: T1, Aβ 1-42 (Homo sapiens, UniProt P05067); assay: Fluorometric H2O2 assay (inhibition of Abeta H2O2 production); type: biochemical; settings: concentration required to inhibit 50% of Abeta H2O2 production; read-out: H2O2 IC50
T1 construct: The reaction solutions contained Aβ 1-42 at concentrations
In short: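 Reactions in PBS pH 7.4 at 37 C for 60 min, containing Aβ, copper and test compound. H2O2 output read as fluorescence of HRP-coupled deacetylated DCF. Fluorescence converted to H2O2 concentration via H2O2 standards.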

Aβ deposits = settings: daily oral gavage 30 mg/kg, 9 weeks, 13-14 months old transgenic mice
[6] = molecular target: T2, Abeta:Zn (25:50 μM) Synthetic Aggregations (Homo sapiens, UniProt P05067); assay: Disaggregation of Abeta:Zn synthetic aggregates (ThT fluorescence); type: biochemical; settings: for Disaggregation % Aggregate reduction at 5 μM: 5 μM test compound; for EC50: Abeta:Zn 25:50 μM aggregates
T2 construct: PB Compound Mediated Dissolution of Aggregated Abeta 1-42; purchased Keck Laboratory, Yale University School of Medicine
In short: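 ThT signal (excitation 450 nm, emission 480 nm) measured after compounds at final 1, 5, 10, 25 and 50 μM acted 2 h at 37 degrees on preformed aggregates. Those aggregates came from 24 h rotating incubation of 25 μM Abeta1-42, 50 μM ZnCl2 and 50 μM ThT in PBS pH 6.6.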

T1 sequence (P05067 672-713 limits assumed): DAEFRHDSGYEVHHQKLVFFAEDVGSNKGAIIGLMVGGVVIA
T2 sequence (P05067 672-713 limits assumed): as above

Row | SMILES | Mice plasma concentration [1] | Toxicity at 30 mg/kg [2] | CuTy % inhibition of dityrosine oligomerization [3] | Cytotox (% viable) Neuronal cells at 1 μM [4] | Cytotox (% viable) Neuronal cells at 10 μM [4] | Cytotox (% viable) M17 cells at 1 μM [5] | Cytotox (% viable) M17 cells at 10 μM [5] | IC50 (Aβ 1-42) | Tg Mice % difference from control in Amyloid plaque abundance (Aβ deposits) | Tg Mice % difference from control in insoluble brain amyloid burden (Aβ deposits) | Tg Mice % difference from control in soluble brain amyloid burden (Aβ deposits) | Disaggregation % Aggregate reduction at 5 μM [6] | EC50 [6]
1 | Cn1nccc1-n1cnc2c(O)c(Cl)cc(Cl)c2c1=O [PB 1262] | Up to 7107 ng/ mL ng/mL | 10 days, none (16/11/05) | CuTy No effect | 104.6% | 83.7% | 106.5% | 94.2% | 940 nM |  |  |  |  | 
2 | Br.CN1CCCC1Cn1cnc2c(O)c(Cl)cc(Cl)c2c1=O (stereo not shown) [PB 1253] | Up to 382.5 ng/ mL ng/mL | 10 days, none | CuTy: 70% inhibition |  |  | 106.6% | 93.9% | 430 nM |  |  |  |  | 
3 | O=c1c2c(Cl)cc(Cl)c(O)c2ncn1C1=CCC=C1 [PB 1244] | Up to 1477.4 ng/mL | 10 days, none | CuTy: 10% inhibition |  |  | 125.7% | 114.8% | 1320 nM |  |  |  |  | 
4 | Cc1nc(Cn2cnc3c(O)c(Cl)cc(Cl)c3c2=O)cs1 [PB-1084] | Up to 2439 ng/ mL ng/mL | 10 days, none | CuTy: 75% inhibition | 100% | 93% | 97% | 95.7% |  | decrease | No change | −29% | 23.4% | 40700 nM
5 | O=c1c2c(Cl)cc(Cl)c(O)c2ncn1CCNCc1ccncc1 [PB 1264] | Up to 1639.8 ng/mL | 10 days, none | CuTy: 100% inhibition |  |  | 103% | 104.8% | 450 nM |  |  |  |  | 
6 | CC(C)c1cnc2c(O)cccn2c1=O [PB 1135] | Up to 409 ng/ml ng/mL | 10 days, none | CuTy: 90% inhibition |  |  | 99.7% | 45.6% | 270 nM |  |  |  | 31% | > 20000 nM
7 | Cc1noc(C)c1Cn1cnc2c(O)c(Cl)cc(Cl)c2c1=O [PB-1085] | Up to 3644 ng/ mL ng/mL | 10 days, none | CuTy: 90% inhibition | 99% | 72% | 104.9% | 76.2% |  | −43% | −34% | increase | 25% | > 20000 nM
8 | CN(C)Cc1nc2c(O)c(Cl)cc(Cl)c2c(=O)n1CC1CC1.Cl [PB 1267] | Up to 1166.6 ng/ml ng/mL | 10 days, none | CuTy: 110% inhibition |  |  | 94.4% | 74.5% | 370 nM |  |  |  |  | 
9 | O=c1c2c(Cl)cc(Cl)c(O)c2ncn1Cc1ccccn1 [PB-1077] | Up to 984 ng/ mL in mice ng/mL | 10 days, none | CuTy: 50% inhibition | 99% | 98% | 97.7% | 91% |  | −30% | No change | No change | 24% | > 20000 nM
10 | Br.CNCc1nc2c(O)c(Cl)cc(Cl)c2c(=O)n1C [PB 1161] | Up to 510.4 ng/mL | 10 days, none | 100% inhib | 105.4% | 103.9% | 101.4% | 112.5% |  | −64% | No change | No change | 27% | > 20000 nM
